Read-outs that look alike come from different tables or passages of the source.
What was measured:
purified human BChE = molecular target: T1, purified human BChE (Homo sapiens, UniProt P06276); experiment: biochemical; type: biochemical
T1 construct: possibly also a gift of Dr Florian Nachon (the sentence is ambiguous)
In short: (§1)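 Modified Ellman assay with acetylthiocholine and DTNB in 0.1 M sodium phosphate pH 7.4 (enzymes diluted with 0.1% BSA), ≤0.2% DMSO, 25 °C. At least three inhibitor concentrations per substrate level; Ki,app from Hunter–Downs equation, Ki from y-intercept and inhibition type from Ki,app vs [S].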

recombinant human AChE = molecular target: T2, recombinant human AChE (Homo sapiens, UniProt P22303); experiment: biochemical; type: biochemical; settings: for IS: IS = Ki(BChE)/Ki(AChE), IS > 1 selective to AChE
T2 construct: gift of Dr Florian Nachon (Armed Forces Biomedical Research Institute, Brétigny-sur-Orge, France)
T2 sequence (P22303 32-614): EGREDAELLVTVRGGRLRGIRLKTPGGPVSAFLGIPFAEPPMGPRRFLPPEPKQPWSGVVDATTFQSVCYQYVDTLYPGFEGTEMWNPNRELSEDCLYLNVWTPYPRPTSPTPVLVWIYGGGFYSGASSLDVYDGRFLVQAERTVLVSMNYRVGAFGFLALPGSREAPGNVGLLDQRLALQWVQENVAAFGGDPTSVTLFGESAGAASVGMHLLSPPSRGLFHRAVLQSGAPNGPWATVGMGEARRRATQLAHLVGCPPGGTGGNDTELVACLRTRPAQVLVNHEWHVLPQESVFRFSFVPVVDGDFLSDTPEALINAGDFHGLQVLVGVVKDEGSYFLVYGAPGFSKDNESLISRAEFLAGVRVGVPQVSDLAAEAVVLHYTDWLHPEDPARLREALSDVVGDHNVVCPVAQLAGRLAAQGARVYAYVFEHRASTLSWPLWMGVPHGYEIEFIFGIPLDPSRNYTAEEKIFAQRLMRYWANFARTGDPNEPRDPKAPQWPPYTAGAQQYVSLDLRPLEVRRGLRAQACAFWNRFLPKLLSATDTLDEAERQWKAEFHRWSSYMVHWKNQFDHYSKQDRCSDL
In short: as §1

[1] = Ferric reducing antioxidant power (FRAP) assay; settings: mean ± standard error of three experiments;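 also: expressed as µM Fe2+ equivalents from an FeSO4·7H2O standard curve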
In short: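 Compounds at 10 and 100 µM were mixed with FRAP reagent (300 mM acetate buffer pH 3.6, TPTZ in HCl, FeCl3, 10:1:1) and incubated 60 min at 37 °C. Fe^2+-TPTZ formation read at 593 nm against a blank. Values derived from an Fe2SO4·7H2O standard curve, three independent experiments.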

[2] = Reverse-phase thin-layer chromatographic lipophilicity (RF, RM0); type: physicochemical; settings: for RM0: intercept of RM = RM0 + bC; for b: slope of RM = RM0 + bC; for RF, Methanol/Water/Hydrochloric acid (conc.), mobile phase I / RF, Dioxane/Water/Hydrochloric acid (conc.), mobile phase II / RF, Methanol/Water/Hydrochloric acid (conc.), mobile phase II / RF, Acetone/Water/Hydrochloric acid (conc.), mobile phase III / RF, Dioxane/Water/Hydrochloric acid (conc.), mobile phase III / RF, Methanol/Water/Hydrochloric acid (conc.), mobile phase III / RF, Dioxane/Water/Hydrochloric acid (conc.), mobile phase IV / RF, Acetone/Water/Hydrochloric acid (conc.), mobile phase IV / RF, Methanol/Water/Hydrochloric acid (conc.), mobile phase IV / RF, Acetone/Water/Hydrochloric acid (conc.), mobile phase IX / RF, Methanol/Water/Hydrochloric acid (conc.), mobile phase IX / RF, Dioxane/Water/Hydrochloric acid (conc.), mobile phase V / RF, Acetone/Water/Hydrochloric acid (conc.), mobile phase V / RF, Methanol/Water/Hydrochloric acid (conc.), mobile phase V / RF, Dioxane/Water/Hydrochloric acid (conc.), mobile phase VI / RF, Acetone/Water/Hydrochloric acid (conc.), mobile phase VI / RF, Methanol/Water/Hydrochloric acid (conc.), mobile phase VI / RF, Acetone/Water/Hydrochloric acid (conc.), mobile phase VII / RF, Methanol/Water/Hydrochloric acid (conc.), mobile phase VII / RF, Acetone/Water/Hydrochloric acid (conc.), mobile phase VIII / RF, Methanol/Water/Hydrochloric acid (conc.), mobile phase VIII: RP-18 silica; for RF, Methanol/Water/Hydrochloric acid (conc.), mobile phase I: I = 90%MeOH/5%H2O/5%HCl; for RF, Dioxane/Water/Hydrochloric acid (conc.), mobile phase II: II = 80%Dioxane/15%H2O/5%HCl; for RF, Methanol/Water/Hydrochloric acid (conc.), mobile phase II: II = 85%MeOH/10%H2O/5%HCl; for RF, Acetone/Water/Hydrochloric acid (conc.), mobile phase III: III = 70%AC/25%H2O/5%HCl; for RF, Dioxane/Water/Hydrochloric acid (conc.), mobile phase III: III = 70%Dioxane/25%H2O/5%HCl; for RF, Methanol/Water/Hydrochloric acid (conc.), mobile phase III: III = 80%MeOH/15%H2O/5%HCl; for RF, Dioxane/Water/Hydrochloric acid (conc.), mobile phase IV: IV = 60%Dioxane/35%H2O/5%HCl; for RF, Acetone/Water/Hydrochloric acid (conc.), mobile phase IV: IV = 65%AC/30%H2O/5%HCl; for RF, Methanol/Water/Hydrochloric acid (conc.), mobile phase IV: IV = 75%MeOH/20%H2O/5%HCl; for RF, Acetone/Water/Hydrochloric acid (conc.), mobile phase IX: IX = 40%AC/55%H2O/5%HCl; for RF, Methanol/Water/Hydrochloric acid (conc.), mobile phase IX: IX = 50%MeOH/45%H2O/5%HCl; for RF, Dioxane/Water/Hydrochloric acid (conc.), mobile phase V: V = 50%Dioxane/45%H2O/5%HCl; for RF, Acetone/Water/Hydrochloric acid (conc.), mobile phase V: V = 60%AC/35%H2O/5%HCl; for RF, Methanol/Water/Hydrochloric acid (conc.), mobile phase V: V = 70%MeOH/25%H2O/5%HCl; for RF, Dioxane/Water/Hydrochloric acid (conc.), mobile phase VI: VI = 40%Dioxane/55%H2O/5%HCl; for RF, Acetone/Water/Hydrochloric acid (conc.), mobile phase VI: VI = 55%AC/40%H2O/5%HCl; for RF, Methanol/Water/Hydrochloric acid (conc.), mobile phase VI: VI = 65%MeOH/30%H2O/5%HCl; for RF, Acetone/Water/Hydrochloric acid (conc.), mobile phase VII: VII = 50%AC/45%H2O/5%HCl; for RF, Methanol/Water/Hydrochloric acid (conc.), mobile phase VII: VII = 60%MeOH/35%H2O/5%HCl; for RF, Acetone/Water/Hydrochloric acid (conc.), mobile phase VIII: VIII = 45%AC/50%H2O/5%HCl; for RF, Methanol/Water/Hydrochloric acid (conc.), mobile phase VIII: VIII = 55%MeOH/40%H2O/5%HCl
In short: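 Reverse-phase TLC using mobile phases of methanol, acetone or dioxane with water and hydrochloric acid. Methanol varied in 10% steps; development distance 4.5 cm, ambient temperature (22±2 °C). RF measured and RM0 derived from retention.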

[3] = ± standard error, 25 °C, ATCh substrate, read-out: Ki BChE
[4] = ± standard error, 25 °C, ATCh substrate, read-out: Ki AChE
[5] = Acetone/Water/Hydrochloric acid (conc.)
[6] = Dioxane/Water/Hydrochloric acid (conc.)
[7] = Methanol/Water/Hydrochloric acid (conc.)

T1 sequence (P06276 29-602): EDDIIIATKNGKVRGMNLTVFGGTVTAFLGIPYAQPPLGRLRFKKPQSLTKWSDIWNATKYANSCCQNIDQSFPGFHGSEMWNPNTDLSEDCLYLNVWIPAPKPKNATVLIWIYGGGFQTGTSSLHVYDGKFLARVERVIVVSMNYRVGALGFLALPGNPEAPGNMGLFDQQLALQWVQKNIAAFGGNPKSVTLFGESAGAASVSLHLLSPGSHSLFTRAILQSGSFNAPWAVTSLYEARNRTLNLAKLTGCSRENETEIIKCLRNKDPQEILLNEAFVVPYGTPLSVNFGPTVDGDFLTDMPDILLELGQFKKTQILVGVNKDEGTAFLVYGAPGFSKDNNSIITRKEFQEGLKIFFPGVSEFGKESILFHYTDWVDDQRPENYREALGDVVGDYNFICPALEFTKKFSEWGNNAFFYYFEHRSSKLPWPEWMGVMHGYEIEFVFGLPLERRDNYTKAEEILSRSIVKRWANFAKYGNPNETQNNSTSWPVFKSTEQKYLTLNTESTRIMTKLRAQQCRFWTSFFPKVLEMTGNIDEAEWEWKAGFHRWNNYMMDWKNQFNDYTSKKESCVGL

Row | SMILES | Ki (purified human BChE; [3]) [µM] | IS (recombinant human AChE) | Ki (recombinant human AChE; [4]) [µM] | FRAP ([1]; 10 µM compound) [µM] | FRAP ([1]; 100 µM compound) [µM] | RM0 [2, 5] | b [2, 5] | RM0 [2, 6] | b [2, 6] | RM0 [2, 7] | b [2, 7] | RF, Methanol/Water/Hydrochloric acid (conc.), mobile phase I [2] | RF, Dioxane/Water/Hydrochloric acid (conc.), mobile phase II [2] | RF, Methanol/Water/Hydrochloric acid (conc.), mobile phase II [2] | RF, Acetone/Water/Hydrochloric acid (conc.), mobile phase III [2] | RF, Dioxane/Water/Hydrochloric acid (conc.), mobile phase III [2] | RF, Methanol/Water/Hydrochloric acid (conc.), mobile phase III [2] | RF, Dioxane/Water/Hydrochloric acid (conc.), mobile phase IV [2] | RF, Acetone/Water/Hydrochloric acid (conc.), mobile phase IV [2] | RF, Methanol/Water/Hydrochloric acid (conc.), mobile phase IV [2] | other results
1 | CC(CCNCCC12CC3CC(CC(C3)C1)C2)Nc1ccnc2cc(Cl)ccc12 (stereo not drawn) [Compound 14] | 0.15 ± 0.01 | 0.1 | 1.9 ± 0.1 | 7.6 ± 2.3 | 86 ± 8 | 2.236 | 3.396 | 1.306 | 2.3979 | 3.293 | 4.124 | 0.67 | 0.78 | 0.62 | 0.53 | 0.69 | 0.45 | 0.66 | 0.5 | 0.42 | preference for BChE (purified human BChE; BChE over AChE): 10 times; RF, Acetone/Water/Hydrochloric acid (conc.), mobile phase IX [2]: 0.08; RF, Methanol/Water/Hydrochloric acid (conc.), mobile phase IX [2]: 0.03; RF, Dioxane/Water/Hydrochloric acid (conc.), mobile phase V [2]: 0.45; RF, Acetone/Water/Hydrochloric acid (conc.), mobile phase V [2]: 0.38; RF, Methanol/Water/Hydrochloric acid (conc.), mobile phase V [2]: 0.34; RF, Dioxane/Water/Hydrochloric acid (conc.), mobile phase VI [2]: 0.27; RF, Acetone/Water/Hydrochloric acid (conc.), mobile phase VI [2]: 0.33; RF, Methanol/Water/Hydrochloric acid (conc.), mobile phase VI [2]: 0.25; RF, Acetone/Water/Hydrochloric acid (conc.), mobile phase VII [2]: 0.25; RF, Methanol/Water/Hydrochloric acid (conc.), mobile phase VII [2]: 0.16; RF, Acetone/Water/Hydrochloric acid (conc.), mobile phase VIII [2]: 0.21; RF, Methanol/Water/Hydrochloric acid (conc.), mobile phase VIII [2]: 0.1
2 | CC(CCNCC12CC3CC(CC(C3)C1)C2)Nc1ccnc2ccccc12 (stereo not drawn) [Compound 15] | 0.65 ± 0.04 | 0.9 | 0.74 ± 0.03 | 9.3 ± 2.2 | 224 ± 21 | 1.742 | 2.801 | 0.8903 | 1.797 | 2.31 | 3.062 | 0.71 | 0.74 | 0.67 | 0.6 | 0.7 | 0.54 | 0.7 | 0.55 | 0.51 | RF, Acetone/Water/Hydrochloric acid (conc.), mobile phase IX [2]: 0.15; RF, Methanol/Water/Hydrochloric acid (conc.), mobile phase IX [2]: 0.11; RF, Dioxane/Water/Hydrochloric acid (conc.), mobile phase V [2]: 0.51; RF, Acetone/Water/Hydrochloric acid (conc.), mobile phase V [2]: 0.45; RF, Methanol/Water/Hydrochloric acid (conc.), mobile phase V [2]: 0.45; RF, Dioxane/Water/Hydrochloric acid (conc.), mobile phase VI [2]: 0.35; RF, Acetone/Water/Hydrochloric acid (conc.), mobile phase VI [2]: 0.4; RF, Methanol/Water/Hydrochloric acid (conc.), mobile phase VI [2]: 0.36; RF, Acetone/Water/Hydrochloric acid (conc.), mobile phase VII [2]: 0.35; RF, Methanol/Water/Hydrochloric acid (conc.), mobile phase VII [2]: 0.27; RF, Acetone/Water/Hydrochloric acid (conc.), mobile phase VIII [2]: 0.29; RF, Methanol/Water/Hydrochloric acid (conc.), mobile phase VIII [2]: 0.2
3 | CC(CCNCCC12CC3CC(CC(C3)C1)C2)Nc1ccnc2ccccc12 (stereo not drawn) [Compound 16] | 0.38 ± 0.03 | 0.7 | 0.52 ± 0.02 | 4.1 ± 0.4 | 46 ± 4 | 1.94 | 3.086 | 0.9042 | 1.814 | 2.5841 | 3.345 | 0.7 | 0.74 | 0.64 | 0.59 | 0.7 | 0.51 | 0.7 | 0.54 | 0.5 | Ki (purified human BChE; logarithm of Ki in µM, BChE, dependent variable of the QSAR model, read-out: Y Measured 2 log(ki)Bche, log (Ki/µM BChE) (converted)): 0.38 µM; Ki (recombinant human AChE; log (Ki/µM AChE), read-out: Y Measured 1 log(ki)Ache (converted)): 0.52 µM; RF, Acetone/Water/Hydrochloric acid (conc.), mobile phase IX [2]: 0.12; RF, Methanol/Water/Hydrochloric acid (conc.), mobile phase IX [2]: 0.09; RF, Dioxane/Water/Hydrochloric acid (conc.), mobile phase V [2]: 0.5; RF, Acetone/Water/Hydrochloric acid (conc.), mobile phase V [2]: 0.44; RF, Methanol/Water/Hydrochloric acid (conc.), mobile phase V [2]: 0.42; RF, Dioxane/Water/Hydrochloric acid (conc.), mobile phase VI [2]: 0.35; RF, Acetone/Water/Hydrochloric acid (conc.), mobile phase VI [2]: 0.39; RF, Methanol/Water/Hydrochloric acid (conc.), mobile phase VI [2]: 0.31; RF, Acetone/Water/Hydrochloric acid (conc.), mobile phase VII [2]: 0.33; RF, Methanol/Water/Hydrochloric acid (conc.), mobile phase VII [2]: 0.21; RF, Acetone/Water/Hydrochloric acid (conc.), mobile phase VIII [2]: 0.26; RF, Methanol/Water/Hydrochloric acid (conc.), mobile phase VIII [2]: 0.15

Source: article PMC9229919, “4-Aminoquinoline-Based Adamantanes as Potential Anticholinesterase Agents in Symptomatic Treatment of Alzheimer’s Disease” (Pharmaceutics, 2022)
